According to patent US20240254087A1, “SELECTIVE, PARTIAL, AND ARRESTIN-BIASED 5-HT2A AGONISTS WITH UTILITY IN VARIOUS DISORDERS” (Saint Joseph's University, priority 2021, published 2024):
Where two headings read alike, the source gives them in different places. Starred links: 1 amine or outer side, 2 acyl side, 3 side chain; linkers in the order of their positions; H or OH if unused. Positions of bridges follow the written chain, without caps; N, C: chain ends. Non-standard residues stand in square brackets, D forms with d. Residues, ends and D or L forms follow the SMILES beside them. X1 = CC(=O)NC(C(=O)OC(C(C)C)C(N[*:1])C(=O)[*:2])C(O)C(C)C; PhLac = O=C(O)[CH](O)Cc1ccccc1; NMeT = CN[CH](C(=O)O)[CH](C)O; NMeA = CN[CH](C)C(=O)O; NMeDha = C=C(NC)C(=O)O

Legend:
5-HT2C = target: T1, 5-HT2C (Homo sapiens, UniProt P28335); assay: BRET Gq dissociation, 5-HT2C; format: cell-based; design: expressed in transfected cells; host or cells: HEK293T, transient
T1 sequence (P28335 33-458): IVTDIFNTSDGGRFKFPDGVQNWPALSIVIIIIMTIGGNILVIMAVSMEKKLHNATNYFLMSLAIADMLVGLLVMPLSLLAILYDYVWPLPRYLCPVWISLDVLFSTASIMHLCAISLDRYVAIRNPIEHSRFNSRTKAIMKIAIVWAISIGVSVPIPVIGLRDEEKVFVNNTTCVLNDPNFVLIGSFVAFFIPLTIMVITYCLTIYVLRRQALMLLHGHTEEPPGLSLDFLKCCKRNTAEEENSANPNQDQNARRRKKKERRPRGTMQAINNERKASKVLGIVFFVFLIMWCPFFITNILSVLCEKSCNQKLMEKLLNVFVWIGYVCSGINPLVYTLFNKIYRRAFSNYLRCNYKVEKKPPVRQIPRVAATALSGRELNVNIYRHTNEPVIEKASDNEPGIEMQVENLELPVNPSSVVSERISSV

5-HT2A [1] = target: T2, 5-HT2A (Homo sapiens, UniProt P28223); assay: cell-based; design: expressed in transfected cells; host or cells: HEK293T, transient; conditions: BRET, mean ± SEM; hydrochloride
5-HT2A [2] = target: T2, 5-HT2A; conditions: cited from earlier work
male C57BL/6J mice [3] = assay: Head-twitch response (HTR) in mice; format: in vivo, mouse; conditions: for ED50: Mus musculus
How it was run: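 Head twitches in male C57BL/6J mice (6-8 weeks) carrying head-mounted magnets were detected with a magnetometer coil around a 12-cm glass cylinder during the dark phase. Coil signal was low-pass filtered at 2 kHz and digitized at 20 kHz. Counts were analyzed by one-way ANOVA with Dunnett's post hoc test.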

5-HT2A [4] = target: T2, 5-HT2A; assay: cell-based; design: expressed in transfected cells; host or cells: HEK293T, transient
male C57BL/6J mice [5] = assay: Tolerance: DOI-induced HTR after 5 days repeated treatment; format: in vivo, mouse; conditions: 5 days SC: 25N-N1-Nap 20, DOI 10, pimavanserin 1 mg/kg/day
Method: (§1) The mice were allowed to recover from the magnet implantation surgeries for at least 1 week prior to behavioral testing. HTR experiments were conducted in a well-lit room, and the mice were allowed to habituate to the room for at least 1 h prior to testing. Head twitches was assessed in a 12-cm diameter glass cylinder surrounded by a magnetometer coil. Coil voltage was low-pass filtered (2 kHz), amplified, and digitized (20-kHz sampling rate) using a Powerlab/8SP with LabChart v 7.3.2 (ADInstruments, Colorado Springs, CO, USA). […] HTR counts were analyzed using one-way ANOVAs. Dunnett's test was used for post hoc comparisons.

5-HT2B = 5-HT2B (Homo sapiens, UniProt P41595); assay: BRET Gq dissociation, 5-HT2B; format: cell-based; design: expressed in transfected cells; host or cells: HEK293T, transient
5-HT2A [6] = target: T2, 5-HT2A; assay: NanoLuc internalization assay; format: cell-based; conditions: 60 min
male C57BL/6J mice [7] = assay: Blockade of agonist-induced HTR by pretreatment; format: in vivo, mouse; conditions: C57BL/6J mice; pretreatment with Gq/11 or phospholipase C inhibitor
Method: Vehicle or the NMDA receptor antagonist PCP (5 mg/kg) was injected IP 10 min after SC administration of vehicle or 25N-NB1-Nap (16), and then the mice were placed in the test chambers 10 min later for a 60-min assessment of locomotor activity. (C). […] Mice were treated with vehicle or M100907 (0.03 mg/kg SC) 10 min prior to vehicle or PCP (5 mg/kg IP): animals were placed in the test chambers 10 min after treatment with PCP.
Male C57BL/6J mice (6-8 weeks old) from Jackson Labs (Bar Harbor, ME, USA) were used for the behavioral experiments. The mice were housed on a reversed light-dark cycle (lights on at 1900 h, off at 0700 h) in an AAAC-approved vivarium at the University of California San Diego. Mice were housed up to four per cage in a climate-controlled room and with food and water provided ad libitum except during behavioral testing. Testing was performed between 1000 and 1800 h (during the dark phase of the light-dark cycle). The studies were conducted in accordance with National Institutes Health (NIH) guidelines and were approved by the University of California San Diego Institutional Animal Care and Use Committee.
as §1

T2 sequence (P28223 whole entry): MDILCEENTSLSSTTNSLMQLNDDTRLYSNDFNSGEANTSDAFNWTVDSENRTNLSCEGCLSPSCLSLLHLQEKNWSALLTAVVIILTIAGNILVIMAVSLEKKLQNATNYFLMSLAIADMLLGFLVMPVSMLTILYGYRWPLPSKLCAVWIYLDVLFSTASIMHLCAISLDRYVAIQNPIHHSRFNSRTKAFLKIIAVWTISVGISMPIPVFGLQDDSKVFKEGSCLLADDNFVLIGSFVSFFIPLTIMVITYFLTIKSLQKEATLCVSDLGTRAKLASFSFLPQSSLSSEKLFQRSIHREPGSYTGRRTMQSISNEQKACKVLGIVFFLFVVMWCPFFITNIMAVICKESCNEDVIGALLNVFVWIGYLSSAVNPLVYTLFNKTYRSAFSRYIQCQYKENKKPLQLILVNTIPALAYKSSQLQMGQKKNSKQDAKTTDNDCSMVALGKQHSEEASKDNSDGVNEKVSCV
Sequence of 5-HT2B (P41595 whole entry): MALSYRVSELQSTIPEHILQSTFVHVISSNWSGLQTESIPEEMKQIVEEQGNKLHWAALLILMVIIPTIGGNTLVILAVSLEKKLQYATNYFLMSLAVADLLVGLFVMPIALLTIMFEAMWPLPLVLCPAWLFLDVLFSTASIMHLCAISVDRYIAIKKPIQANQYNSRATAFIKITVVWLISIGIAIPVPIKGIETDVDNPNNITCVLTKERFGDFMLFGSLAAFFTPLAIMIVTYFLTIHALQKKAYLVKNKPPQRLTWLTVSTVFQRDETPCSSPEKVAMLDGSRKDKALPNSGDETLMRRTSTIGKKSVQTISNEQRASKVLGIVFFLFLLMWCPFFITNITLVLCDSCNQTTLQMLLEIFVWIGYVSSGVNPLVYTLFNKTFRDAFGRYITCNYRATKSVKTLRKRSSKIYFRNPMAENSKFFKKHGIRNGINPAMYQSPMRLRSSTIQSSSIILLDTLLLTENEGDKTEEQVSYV

## COc1cc(CC(C)N)c(OC)cc1I.Cl (racemic) [(±)-DOI, (±)-2,5-dimethoxy-4-iodoamphetamine hydrochloride, reference compound]
5-HT2C
  EC50: 0.832 nM
5-HT2C; read-out: 5-HT2C Gq Dissociation (BRET) EMAX ± SEM (%5-HT)
  Emax: 114 ± 3.4%
5-HT2A [1]
  5-HT2A Gq Emax (% 5-HT): 108.2 ± 4.2 % 5-HT
5-HT2A [2]
  Emax in a 5-HT2A-Gq calcium flux assay: 81.3%
Male C57BL/6J mice [3]
  Max HTR response during a 30-min assessment (maximum counts ÷ baseline response): 9.9-fold increase
Male C57BL/6J mice [3]; read-out: HTR ED50 μmol/kg (95% CI), SC, except DOI and 25D-NBOMe IP
  ED50: 0.8 µmol/kg
Male C57BL/6J mice [3]; read-out: HTR ED50 mg/kg (95% CI), SC, except DOI and 25D-NBOMe IP
  ED50: 0.29 mg/kg
5-HT2A [4]; read-out: 5-HT2A β-arrestin Emax (% 5-HT), BRET, mean ± SEM
  Emax: 88.8 ± 1.9%
Male C57BL/6J mice [5]
  Ability of DOI (1 mg/kg IP) to induce the HTR after repeated daily treatment: reduced significantly
5-HT2B
  EC50: 12.6 nM
5-HT2B; read-out: 5-HT2B Gq Dissociation (BRET) EMAX ± SEM (%5-HT)
  Emax: 103 ± 2.8%
5-HT2A [6]
  Internalization of 5-HT2A receptors: strong internalization

## CCN(CC)C(=O)[C@@H]1C=C2c3cccc4[nH]cc(c34)C[C@H]2N(C)C1 [LSD, reference compound]
5-HT2A [2]
  Emax in a 5-HT2A-Gq calcium flux assay: 84.6%
5-HT2A [4]; BRET, mean ± SEM
  5-HT2A β-arrestin Emax (% 5-HT): 85 ± 3 % 5-HT

## CC(C)COc1ccc(CNC(=O)N(Cc2ccc(F)cc2)C2CCN(C)CC2)cc1 [Pimavanserin]
Male C57BL/6J mice [5]
  Ability of DOI (1 mg/kg IP) to induce the HTR after repeated daily treatment: not altered

## C=C1C(=O)NC(C)C(=O)N(C)C(C)C(=O)NC(C(OC(=O)C(NC(C)=O)C(O)C(C)C)C(C)C)C(=O)N(C)C(C(C)OC)C(=O)OC(C)C(NC(C)=O)C(=O)OC(Cc2ccccc2)C(=O)N1C (stereo not shown) [YM-254,890, reference compound] (Ac-T[PhLac][NMeDha]A[NMeA][X1][NMeT](Me); ester 1-C; configuration not given here)
Male C57BL/6J mice [7]
  Blockade of the HTR induced by (+/−)-DOI and 25N-NBOMe: blocked
